Assay results published in BindingDB's records for PubMed 9686407 (Sri International, 1998).
pKi: −log10 of the molar value.

Legend:
[1] = target: T1, 5-hydroxytryptamine receptor 2C (Rattus norvegicus, UniProt P08909)
T1 sequence (P08909 whole entry): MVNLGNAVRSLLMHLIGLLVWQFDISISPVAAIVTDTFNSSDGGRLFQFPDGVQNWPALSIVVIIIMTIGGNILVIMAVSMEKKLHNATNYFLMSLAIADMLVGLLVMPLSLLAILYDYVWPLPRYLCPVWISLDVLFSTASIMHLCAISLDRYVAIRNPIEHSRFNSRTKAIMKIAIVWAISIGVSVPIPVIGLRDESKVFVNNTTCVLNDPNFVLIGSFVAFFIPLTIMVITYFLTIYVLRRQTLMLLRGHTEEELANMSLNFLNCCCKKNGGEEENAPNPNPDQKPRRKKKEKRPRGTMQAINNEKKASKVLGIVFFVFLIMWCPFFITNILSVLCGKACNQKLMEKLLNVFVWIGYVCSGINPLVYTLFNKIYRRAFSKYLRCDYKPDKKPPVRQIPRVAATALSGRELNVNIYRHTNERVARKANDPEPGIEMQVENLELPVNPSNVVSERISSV

[2] = target: 5-hydroxytryptamine receptor 5A (Rattus norvegicus, UniProt P35364)
Chain of 5-hydroxytryptamine receptor 5A (P35364 whole entry): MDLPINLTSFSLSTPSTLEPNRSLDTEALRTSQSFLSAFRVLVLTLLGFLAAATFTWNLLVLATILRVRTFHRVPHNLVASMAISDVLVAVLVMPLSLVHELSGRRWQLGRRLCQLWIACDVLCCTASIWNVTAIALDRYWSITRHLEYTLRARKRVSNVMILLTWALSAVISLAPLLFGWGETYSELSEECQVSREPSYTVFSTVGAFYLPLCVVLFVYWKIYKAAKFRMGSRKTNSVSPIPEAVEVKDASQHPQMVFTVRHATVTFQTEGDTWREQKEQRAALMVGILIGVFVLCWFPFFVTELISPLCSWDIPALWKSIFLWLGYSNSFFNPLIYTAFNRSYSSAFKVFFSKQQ

[3] = target: Kappa-type opioid receptor (Cavia porcellus, UniProt P41144)
Chain of Kappa-type opioid receptor (P41144 whole entry): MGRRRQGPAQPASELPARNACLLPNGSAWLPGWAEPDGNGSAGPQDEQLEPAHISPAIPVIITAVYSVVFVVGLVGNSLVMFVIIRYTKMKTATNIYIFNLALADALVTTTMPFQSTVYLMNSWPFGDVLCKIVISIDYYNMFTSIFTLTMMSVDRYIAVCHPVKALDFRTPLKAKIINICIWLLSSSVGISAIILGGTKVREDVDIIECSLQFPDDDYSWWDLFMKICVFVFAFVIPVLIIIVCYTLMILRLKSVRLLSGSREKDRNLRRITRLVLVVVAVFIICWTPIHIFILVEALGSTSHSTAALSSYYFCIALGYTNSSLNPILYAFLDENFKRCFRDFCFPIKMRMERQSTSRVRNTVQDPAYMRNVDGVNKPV

Mu-type opioid receptor = Mu-type opioid receptor (Cavia porcellus, UniProt P97266)
Chain of Mu-type opioid receptor (P97266 whole entry): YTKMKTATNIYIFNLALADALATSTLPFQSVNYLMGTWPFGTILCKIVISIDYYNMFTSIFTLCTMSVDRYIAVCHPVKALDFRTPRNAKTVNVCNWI

Molecule | pKi [1] | pKi [2] | pKi [3] | pKi (Mu-type opioid receptor)
NCC(O)c1ccc(O)c(O)c1 (stereo not drawn) [Noradrenaline,(+)] | < 5.00 | < 5.00 | – | –
C[C@@H](NC(=O)[C@@H](N)Cc1ccc(O)cc1)C(=O)NCC(=O)N(C)[C@@H](Cc1ccccc1)C(=O)NCCO [[tyrosyl-3,5-3H(N)]-D-Ala2-Mephe4-glyol5-enkephalin] | – | – | 5.73 | 8.96
H-YGGFMTSEKSQTPLVTLFKNAIVKNAHKKGQ-OH [Beta-Endorphin] | – | – | 7.36 | 8.64
